Experimental data as given in ChEMBL document CHEMBL3861993, “Alternative core development around the tetracyclic indole class of HCV NS5A inhibitors” (Bioorg Med Chem Lett, 2016).

What was measured:
[1] = Oral bioavailability in rat at 10 mg/kg; type: ADME, organism-based; conditions: in vivo
[2] = system: Hepatitis C virus subtype 4a; assay: Inhibition of HCV genotype 4a NS5A after 3 day incubation by RT-PCR-cell-based HCV replicon assay
[3] = Half life in rat at 2 mg/kg, iv or 10 mg/kg, po; type: ADME, organism-based; conditions: in vivo
[4] = Clearance in rat at 2 mg/kg, iv or 10 mg/kg, po; type: ADME, organism-based; conditions: in vivo
[5] = AUC in rat at 10 mg/kg, po; type: ADME, organism-based; conditions: in vivo
[6] = system: Hepatitis C virus subtype 1a; assay: Inhibition of HCV genotype 1a NS5A after 3 day incubation by RT-PCR-cell-based HCV replicon assay
[7] = system: Nonstructural protein 5A (Hepatitis C virus), Q5L478 [UNDEFINED MUTATION]; assay: Inhibition of HCV genotype 1a NS5A L31V mutant after 3 day incubation by RT-PCR-cell-based HCV replicon assay; conditions: Hepatitis C virus subtype 1a
[8] = system: T1, Nonstructural protein 5A (Hepatitis C virus), Q5L478 [Y93H]; assay: Inhibition of HCV genotype 1a NS5A Y93H mutant after 3 day incubation by RT-PCR-cell-based HCV replicon assay; conditions: Hepatitis C virus subtype 1a
T1 sequence (whole entry): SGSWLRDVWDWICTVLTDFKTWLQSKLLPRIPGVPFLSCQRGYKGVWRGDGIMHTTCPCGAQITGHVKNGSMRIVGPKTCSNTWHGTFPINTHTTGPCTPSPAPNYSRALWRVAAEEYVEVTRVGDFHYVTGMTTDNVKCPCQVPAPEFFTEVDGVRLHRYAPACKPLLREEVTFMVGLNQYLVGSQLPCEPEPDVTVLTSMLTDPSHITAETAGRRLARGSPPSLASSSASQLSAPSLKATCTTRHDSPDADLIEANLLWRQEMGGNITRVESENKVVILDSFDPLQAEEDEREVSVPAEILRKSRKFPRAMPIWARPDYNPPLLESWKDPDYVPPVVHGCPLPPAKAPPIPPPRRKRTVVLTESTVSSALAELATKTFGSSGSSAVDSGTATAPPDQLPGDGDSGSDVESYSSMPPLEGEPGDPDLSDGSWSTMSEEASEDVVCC

[9] = Cmax in rat at 2 mg/kg, iv or 10 mg/kg, po; type: ADME, organism-based; conditions: in vivo
[10] = system: Hepatitis C virus subtype 2b; assay: Inhibition of HCV genotype 2b NS5A harboring methionine at position 31 after 3 day incubation by RT-PCR-cell-based HCV replicon assay
[11] = system: Hepatitis C virus subtype 3a; assay: Inhibition of HCV genotype 3a NS5A after 3 day incubation by RT-PCR-cell-based HCV replicon assay
[12] = AUC in rat at 3 mg/kg, iv or 10 mg/kg, po; type: ADME, organism-based; conditions: in vivo

Structure (SMILES) | bioavailability [1] [%] | EC90 [2] [nM] | half-life [3] [h] | clearance [4] [mL/min/kg] | AUC [5] [µM·h] | EC90 [6] [nM] | EC90 [7] [nM] | EC90 [8] [nM] | Cmax [9] [nM] | EC90 [10] [nM] | EC90 [11] [nM] | AUC [12] [µM·h]
COC(=O)N[C@H](C(=O)N1CCC[C@H]1c1ncc(-c2ccc3c(c2)OCC2=C3COc3cc(-c4cnc([C@@H]5CCCN5C(=O)[C@@H](NC(=O)OC)C(C)C)[nH]4)ccc32)[nH]1)C(C)C | 14 | 0.18 | 2.7 | 5.3 | 5.57 | 0.01 | 0.33 | > 100 | 660 | 24.7 | > 1 | –
COC(=O)N[C@H](C(=O)N1CCC[C@H]1c1ncc(-c2ccc3c(c2)Oc2ccc(-c4cnc([C@@H]5CCCN5C(=O)[C@@H](NC(=O)OC)C(C)C)[nH]4)c4ccn-3c24)[nH]1)C(C)C | – | 0.31 | – | – | – | 0.06 | 90.2 | 122 | – | – | 0.69 | –
COC(=O)N[C@H](C(=O)N1CCC[C@H]1c1ncc(-c2ccc3c(c2)OC(C)C2=C3COc3cc(-c4cnc([C@@H]5CCCN5C(=O)[C@@H](NC(=O)OC)C(C)C)[nH]4)ccc32)[nH]1)C(C)C (stereo not given in full) | – | – | – | – | – | 0.028 | 1.52 | 55.1 | – | 28.1 | – | –
COC(=O)N[C@H](C(=O)N1CCC[C@H]1c1ncc(-c2ccc3c(c2)OCn2c-3cc3cc(-c4cnc([C@@H]5CCCN5C(=O)[C@@H](NC(=O)OC)C(C)C)[nH]4)ccc32)[nH]1)C(C)C | – | 0.18 | – | – | – | 0.02 | 6.5 | > 100 | – | 75.7 | > 1 | –
COC(=O)N[C@H](C(=O)N1CCC[C@H]1c1ncc(-c2ccc3c(c2)Oc2ccc(-c4cnc([C@@H]5CCCN5C(=O)[C@@H](NC(=O)OC)C(C)C)[nH]4)c4c2N3CCC4)[nH]1)C(C)C | – | 4.81 | – | – | – | > 0.1 | 100 | 441 | – | 100 | > 10 | –
COC(=O)N[C@H](C(=O)N1CCC[C@H]1c1ncc(-c2ccc3c(c2)Oc2ccc(-c4cnc([C@@H]5CCCN5C(=O)[C@@H](NC(=O)OC)C(C)C)[nH]4)c4cnn-3c24)[nH]1)C(C)C | – | 0.76 | – | – | – | 0.04 | 62.3 | 124 | – | 100 | 1.59 | –
COC(=O)N[C@H](C(=O)N1CCC[C@H]1c1ncc(-c2ccc3c(c2)OCc2c-3c(=O)oc3cc(-c4cnc([C@@H]5CCCN5C(=O)[C@@H](NC(=O)OC)C(C)C)[nH]4)ccc23)[nH]1)C(C)C | – | 0.18 | – | – | – | 0.01 | 58.6 | > 50 | – | 113 | > 1 | –
COC(=O)N[C@H](C(=O)N1CCC[C@H]1c1ncc(-c2ccc3c(c2)Oc2ccc(-c4cnc([C@@H]5CC(F)(F)CN5C(=O)[C@@H](NC(=O)OC)C(C)C)[nH]4)c4ccn-3c24)[nH]1)C(C)C | 15 | – | – | – | – | 0.02 | 17.2 | 22 | – | 342 | – | 3.98
COC(=O)N[C@H](C(=O)N1CCC[C@H]1c1ncc(-c2ccc3c(c2)OC(C2CC2)C2=C3COc3cc(-c4cnc([C@@H]5CCCN5C(=O)[C@@H](NC(=O)OC)C(C)C)[nH]4)ccc32)[nH]1)C(C)C (stereo not given in full) | – | – | – | – | – | 0.063 | 1.7 | 41 | – | 5.2 | 10.7 | –
